Source: US11053204B2, “Pyrimidinyloxy benzene derivatives as herbicides” (FMC Corporation, priority 2015, dated 2021)

Assays:
Type in all cases: in vivo
[1] = tested on: barnyardgrass (Echinochloa crus-galli); assay: Test B flooded paddy test, plant response rating; conditions: 250 g ai/ha, Flood, scale of 0 to 100 where 0 is no effect and 100 is complete control, 13 to 15 days
Outline: (§1)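 In-water treatment: compound dosed into 3 cm flood over soil, water level unchanged throughout. Controls run alongside; visual assessment at day 13–15.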

[2] = tested on: ducksalad (Heteranthera limosa); assay: Test B flooded paddy test, plant response rating; conditions: 250 g ai/ha, Flood, scale of 0 to 100 where 0 is no effect and 100 is complete control, 13 to 15 days
Outline: as §1

[3] = tested on: sedge, umbrella (small-flower umbrella sedge, Cyperus difformis); assay: Test B flooded paddy test, plant response rating; conditions: 250 g ai/ha, Flood, scale of 0 to 100 where 0 is no effect and 100 is complete control, 13 to 15 days
Outline: as §1

rice (Oryza sativa) = assay: Test B flooded paddy test, plant response rating; conditions: 250 g ai/ha, Flood, scale of 0 to 100 where 0 is no effect and 100 is complete control, 13 to 15 days
Outline: as §1

[4] = tested on: waterhemp (common waterhemp, Amaranthus rudis); assay: Test C postemergence, plant response rating; conditions: for Plant response rating, Waterhemp: scale 0 to 100; for Waterhemp plant response rating: scale 0 to 100 (0 no effect, 100 complete control)
Outline: (§2)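 Both timings shared one formulation, a non-phytotoxic solvent mixture with surfactant, and a greenhouse period of 13 to 15 d. Preemergence used seeded loam/sand or silt loam soil, postemergence used 2 to 18 cm plants; visual ratings ran from 0 (no effect) to 100 (complete control).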

kochia (Kochia scoparia) [5] = assay: Test C postemergence, plant response rating; conditions: for Kochia plant response rating: scale 0 to 100 (0 no effect, 100 complete control)
Outline: as §2

[6] = tested on: oilseed rape (Brassica napus); assay: Test C postemergence, plant response rating; conditions: for Oilseed Rape plant response rating: scale 0 to 100 (0 no effect, 100 complete control)
Outline: as §2

[7] = tested on: velvetleaf (Abutilon theophrasti); assay: Test C postemergence, plant response rating; conditions: for Velvetleaf plant response rating: scale 0 to 100 (0 no effect, 100 complete control)
Outline: as §2

[8] = tested on: morningglory (Ipomoea coccinea); assay: Test C postemergence, plant response rating; conditions: for Morningglory plant response rating: scale 0 to 100 (0 no effect, 100 complete control)
Outline: as §2

[9] = tested on: ragweed (common ragweed, Ambrosia elatior); assay: Test C postemergence, plant response rating; conditions: for Ragweed plant response rating: scale 0 to 100 (0 no effect, 100 complete control)
Outline: as §2

kochia (Kochia scoparia) [10] = assay: Test A postemergence, visual injury rating; conditions: 0 is no effect, 100 is complete control
Outline: (§3)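 Visual injury scored 0–100 (100 = complete control) against untreated controls about 10 days after treatment in a greenhouse. Test chemicals, formulated with surfactant in non-phytotoxic solvent, were sprayed on soil preemergence or on 2-10 cm, one- to two-leaf plants postemergence.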

[11] = tested on: wheat (Triticum aestivum); assay: Test A postemergence, visual injury rating; conditions: 0 is no effect, 100 is complete control
Outline: as §3

corn (Zea mays) = assay: Test A postemergence, visual injury rating; conditions: 0 is no effect, 100 is complete control
Outline: as §3

[12] = tested on: pigweed (Amaranthus retroflexus); assay: Test A postemergence, visual injury rating; conditions: 0 is no effect, 100 is complete control
Outline: as §3

[13] = tested on: Italian ryegrass (Lolium multiflorum); assay: Test A postemergence, visual injury rating; conditions: 0 is no effect, 100 is complete control
Outline: as §3

[14] = tested on: giant foxtail (Setaria faberii); assay: Test A postemergence, visual injury rating; conditions: 0 is no effect, 100 is complete control
Outline: as §3

[15] = tested on: ragweed (common ragweed, Ambrosia elatior); assay: Test A postemergence, visual injury rating; conditions: 0 is no effect, 100 is complete control
Outline: as §3

[16] = tested on: barnyardgrass (Echinochloa crus-galli); assay: Test C postemergence, plant response rating; conditions: Echinochloa crus-galli, post-emergence
Outline: as §2

[17] = 125 g ai/ha, 0 to 100 scale, approximately 10 days

CCCC(=O)c1c(Br)cccc1Oc1ncc(Cl)cn1 [Compound 75]
Plant response rating, Barnyardgrass [1]: 40
Plant response rating, Ducksalad [2]: 95
Plant response rating, Sedge, Umbrella [3]: 95
Plant response rating, Rice (rice (Oryza sativa)): 35
Plant response rating, Waterhemp ([4]; 16 g ai/ha): 85
Plant response rating, Waterhemp ([4]; 31 g ai/ha): 90
Waterhemp plant response rating ([4]; 62 g ai/ha): 90
Waterhemp plant response rating ([4]; 125 g ai/ha): 95
Plant response rating, Kochia (kochia (Kochia scoparia) [5]; 16 g ai/ha, scale 0 to 100): 75
Plant response rating, Kochia (kochia (Kochia scoparia) [5]; 31 g ai/ha, scale 0 to 100): 85
Kochia plant response rating (kochia (Kochia scoparia) [5]; 62 g ai/ha): 90
Kochia plant response rating (kochia (Kochia scoparia) [5]; 125 g ai/ha): 98
Plant response rating, Oilseed Rape ([6]; 16 g ai/ha, scale 0 to 100): 60
Plant response rating, Oilseed Rape ([6]; 31 g ai/ha, scale 0 to 100): 80
Oilseed Rape plant response rating ([6]; 62 g ai/ha): 80
Oilseed Rape plant response rating ([6]; 125 g ai/ha): 95
Plant response rating, Velvetleaf ([7]; 16 g ai/ha, scale 0 to 100): 30
Plant response rating, Velvetleaf ([7]; 31 g ai/ha, scale 0 to 100): 35
Velvetleaf plant response rating ([7]; 62 g ai/ha): 70
Velvetleaf plant response rating ([7]; 125 g ai/ha): 75
Plant response rating, Morningglory ([8]; 16 g ai/ha, scale 0 to 100): 5
Plant response rating, Morningglory ([8]; 31 g ai/ha, scale 0 to 100): 15
Morningglory plant response rating ([8]; 62 g ai/ha): 20
Morningglory plant response rating ([8]; 125 g ai/ha): 65
Plant response rating, Ragweed ([9]; 16 g ai/ha, scale 0 to 100): 5
Plant response rating, Ragweed ([9]; 31 g ai/ha, scale 0 to 100): 10
Ragweed plant response rating ([9]; 62 g ai/ha): 50
Ragweed plant response rating ([9]; 125 g ai/ha): 60
Kochia plant response rating (kochia (Kochia scoparia) [10]; [17]): 100
Kochia plant response rating (0 to 100 scale) (kochia (Kochia scoparia) [10]; 500 g ai/ha): 100
Wheat plant response rating [11, 17]: 20
Wheat plant response rating (0 to 100 scale) ([11]; 500 g ai/ha): 70
Corn plant response rating (0 to 100 scale) (corn (Zea mays); 125 g ai/ha): 80
Corn plant response rating (0 to 100 scale) (corn (Zea mays); 500 g ai/ha): 90
Pigweed plant response rating [12, 17]: 100
Pigweed plant response rating (0 to 100 scale) ([12]; 500 g ai/ha): 100
Ryegrass, Italian plant response rating [13, 17]: 40
Ryegrass, Italian plant response rating (0 to 100 scale) ([13]; 500 g ai/ha): 70
Foxtail, Giant plant response rating (0 to 100 scale) ([14]; 125 g ai/ha): 90
Foxtail, Giant plant response rating (0 to 100 scale) ([14]; 500 g ai/ha): 100
Ragweed plant response rating [15, 17]: 30
Ragweed plant response rating (0 to 100 scale) ([15]; 500 g ai/ha): 40

CCCOC(=O)c1c(Br)cccc1Oc1ncc(Cl)cn1 [Compound 13, propyl 2-bromo-6-[(5-chloro-2-pyrimidinyl)oxy]benzoate]
pest or weed control at 250 g/ha ([1]; Echinochloa crus-galli, 312 h): 0%
pest or weed control at 250 g/ha ([2]; Heteranthera limosa, 312 h): 70%
pest or weed control at 250 g/ha ([3]; Cyperus difformis, 312 h): 75%
plant injury at 250 g/ha (rice (Oryza sativa); Oryza sativa, 312 h): 30%
pest or weed control at 4 g/ha ([16]; 4 g ai/ha, scale of 0 to 100): 5%
pest or weed control at 8 g/ha ([16]; 8 g ai/ha, scale of 0 to 100): 5%
pest or weed control at 16 g/ha ([16]; 16 g ai/ha, scale 0 to 100): 10%
pest or weed control at 31 g/ha ([16]; 31 g ai/ha, scale 0 to 100): 10%
pest or weed control at 4 g/ha (kochia (Kochia scoparia) [5]; Bassia scoparia, post-emergence, 4 g ai/ha, scale of 0 to 100): 0%
pest or weed control at 8 g/ha (kochia (Kochia scoparia) [5]; Bassia scoparia, post-emergence, 8 g ai/ha, scale of 0 to 100): 5%
pest or weed control at 16 g/ha (kochia (Kochia scoparia) [5]; Bassia scoparia, post-emergence, 16 g ai/ha, scale 0 to 100): 30%
pest or weed control at 31 g/ha (kochia (Kochia scoparia) [5]; Bassia scoparia, post-emergence, 31 g ai/ha, scale 0 to 100): 30%
plant injury at 4 g/ha ([6]; Brassica napus, post-emergence, 4 g ai/ha, scale of 0 to 100): 0%
plant injury at 8 g/ha ([6]; Brassica napus, post-emergence, 8 g ai/ha, scale of 0 to 100): 0%
plant injury at 16 g/ha ([6]; Brassica napus, post-emergence, 16 g ai/ha, scale 0 to 100): 0%
plant injury at 31 g/ha ([6]; Brassica napus, post-emergence, 31 g ai/ha, scale 0 to 100): 35%
pest or weed control at 4 g/ha ([7]; Abutilon theophrasti, post-emergence, 4 g ai/ha, scale of 0 to 100): 15%
pest or weed control at 8 g/ha ([7]; Abutilon theophrasti, post-emergence, 8 g ai/ha, scale of 0 to 100): 15%
pest or weed control at 16 g/ha ([7]; Abutilon theophrasti, post-emergence, 16 g ai/ha, scale 0 to 100): 20%
pest or weed control at 31 g/ha ([7]; Abutilon theophrasti, post-emergence, 31 g ai/ha, scale 0 to 100): 25%
pest or weed control at 4 g/ha ([8]; Ipomoea, post-emergence, 4 g ai/ha, scale of 0 to 100): 5%
pest or weed control at 8 g/ha ([8]; Ipomoea, post-emergence, 8 g ai/ha, scale of 0 to 100): 5%
pest or weed control at 16 g/ha ([8]; Ipomoea, post-emergence, 16 g ai/ha, scale 0 to 100): 20%
pest or weed control at 31 g/ha ([8]; Ipomoea, post-emergence, 31 g ai/ha, scale 0 to 100): 30%
pest or weed control at 4 g/ha ([9]; Ambrosia artemisiifolia, post-emergence, 4 g ai/ha, scale of 0 to 100): 5%
pest or weed control at 8 g/ha ([9]; Ambrosia artemisiifolia, post-emergence, 8 g ai/ha, scale of 0 to 100): 5%
pest or weed control at 16 g/ha ([9]; Ambrosia artemisiifolia, post-emergence, 16 g ai/ha, scale 0 to 100): 5%
pest or weed control at 31 g/ha ([9]; Ambrosia artemisiifolia, post-emergence, 31 g ai/ha, scale 0 to 100): 5%
pest or weed control at 125 g/ha (kochia (Kochia scoparia) [10]; Bassia scoparia, post-emergence, 240 h, 125 g ai/ha, read-out: Kochia plant response rating (0 to 100 scale)): 100%
pest or weed control at 500 g/ha (kochia (Kochia scoparia) [10]; Bassia scoparia, post-emergence, 240 h, 500 g ai/ha, read-out: Kochia plant response rating (0 to 100 scale)): 100%
plant injury at 125 g/ha ([11]; Triticum aestivum, post-emergence, 240 h, 125 g ai/ha, read-out: Wheat plant response rating (0 to 100 scale)): 20%
plant injury at 500 g/ha ([11]; Triticum aestivum, post-emergence, 240 h, 500 g ai/ha, read-out: Wheat plant response rating (0 to 100 scale)): 30%
plant injury at 125 g/ha (corn (Zea mays); Zea mays, post-emergence, 240 h, 125 g ai/ha, read-out: Corn plant response rating (0 to 100 scale)): 30%
plant injury at 500 g/ha (corn (Zea mays); Zea mays, post-emergence, 240 h, 500 g ai/ha, read-out: Corn plant response rating (0 to 100 scale)): 90%
pest or weed control at 125 g/ha ([12]; Amaranthus retroflexus, post-emergence, 240 h, 125 g ai/ha, read-out: Pigweed plant response rating (0 to 100 scale)): 90%
pest or weed control at 500 g/ha ([12]; Amaranthus retroflexus, post-emergence, 240 h, 500 g ai/ha, read-out: Pigweed plant response rating (0 to 100 scale)): 100%
pest or weed control at 125 g/ha ([13]; Lolium multiflorum, post-emergence, 240 h, 125 g ai/ha, read-out: Ryegrass, Italian plant response rating (0 to 100 scale)): 0%
pest or weed control at 500 g/ha ([13]; Lolium multiflorum, post-emergence, 240 h, 500 g ai/ha, read-out: Ryegrass, Italian plant response rating (0 to 100 scale)): 100%
pest or weed control at 125 g/ha ([14]; Setaria faberi, post-emergence, 240 h, 125 g ai/ha, read-out: Foxtail, Giant plant response rating (0 to 100 scale)): 80%
pest or weed control at 500 g/ha ([14]; Setaria faberi, post-emergence, 240 h, 500 g ai/ha, read-out: Foxtail, Giant plant response rating (0 to 100 scale)): 100%
pest or weed control at 125 g/ha ([15]; Ambrosia artemisiifolia, post-emergence, 240 h, 125 g ai/ha, read-out: Ragweed plant response rating (0 to 100 scale)): 0%
pest or weed control at 500 g/ha ([15]; Ambrosia artemisiifolia, post-emergence, 240 h, 500 g ai/ha, read-out: Ragweed plant response rating (0 to 100 scale)): 20%
